This assay deals with MaPylRS. The experiment in a line: Intact tRNA mass spectrometry: acylation of Ma-tRNA^Pyl by MaPylRS. The assay is classed as biochemical, Methanomethylophilus alvus. The settings on record: MaPylRS 2.5 μM, Ma-tRNA^Pyl 25 μM, 37° C., 2 h; average of 3 technical replicates.

For the compound `CC(C)(C)OC(=O)NCCCCC(C(=O)O)C(=O)O` [Substrate 16], the “Yield of diacylated Ma-tRNA^Pyl” value stood at 0.0% and the “Yield of monoacylated Ma-tRNA^Pyl” value amounted to 0.25%.

The values above are taken from patent publication US20250027130A1, “Nucleic Acid Synthesis and Sequencing Using Tethered Nucleoside Triphosphates” (The Regents of the University of California, priority 2022, published 2025).
